Assay results published in patent publication US20260232642A1, “RNA-BINDING MOLECULES WITH A SMALL CORE SCAFFOLD (R-SCORE) AND USES THEREOF” (Max-Planck-Gesellschaft zur Förderung der Wissenschaften …, priority 2022, published 2026).
Read-outs that look alike come from different tables or passages of the source.

Assays:
[1] = tested on: precursor microRNA-17 hairpin (pre-miR-17 hp); assay: Differential scanning fluorimetry (DSF), pre-miR-17 hairpin; format: binding; conditions: 60 uM compound, 1 μM hairpin in PBS, Tm of compound minus Tm of DMSO control
Procedure: (§1) To measure the binding between compounds and precursor microRNA-21 hairpin (pre-miR-21 hp) or precursor microRNA-17 hairpin (pre-miR-17 hp), DSF was performed as previously described with modification (ACS Chem. Biol. 2017, 12, 2, 435-443). Precursor microRNA hairpin was dissolved in PBS and annealed by briefly heating to 95° C. for 3 min and slowly cooling to rt. Assay was performed in duplicates using white qPCR 8-strips (VWR) with a total volume of 10 μL in PBS. The total reaction consisted of 1 μM precursor microRNA hairpin, 1% test compound (DMSO dilution) and 2×SYBR GreenII (Thermo Fisher Scientific). Compounds were incubated with precursor microRNA hairpin at for 10 min at rt, then SYBR GreenII was added to each well, mixed and incubated 10 min at rt. The strips were spined and loaded to the RT-PCR detection system (BIO-RAD CFX Connect), the fluorescence intensity was obtained every 1° C. for 30 s in the range of 20° C. to 80° C.
(§2) The melting temperature (Tm) was determined by the maximum of the negative of the first derivative of the fluorescence vs temperature melting curves. The ΔTm was calculated by the Tm value of compound subtract the Tm value of the DMSO control.

[2] = tested on: precursor microRNA-21 hairpin (pre-miR-21 hp); assay: Differential scanning fluorimetry (DSF), pre-miR-21 hairpin; format: binding; conditions: 60 uM compound, 1 μM hairpin in PBS, Tm of compound minus Tm of DMSO control
Procedure: as §1, §2

[3] = tested on: MCF-7 cells; assay: MTT assay, MCF-7; format: cell-based, human; conditions: breast cancer cell line, read-out: Cell lines IC50 [μM] MCF-7
Procedure: (§3) MAD-MB-231, MCF-7 and JAR cells were cultured in Dulbecco's modified Eagle's (DMEM) medium supplemented with 10% Fetal Bovine Serum (FBS), 100 u/mL penicillin-streptomycin. Jurkat, Molt-4 and Ramos cells were cultured in Roswell Park Memorial Institute (RPMI) 1640 medium with 10% Fetal Bovine Serum (FBS), 100 u/mL penicillin-streptomycin. All cell lines grown in an incubator with humidified 5% CO2 at 37° C.
(§4) Jurkat, Molt-4 and Ramos cells were collected and seeded into 96-well plates at a density of 8000-10000 per well and treated with compounds. MCF-7, MDA-MB-231 and JAR cells were collected and seeded into 96-well plates at a density of 2000-3000 per well and cultured overnight to adherent before treat with compounds. After exposed to increasing concentrations of compounds for 72 h, the cells in each well were mixed with 20 μL of 5 mg/ml MTT (3-(4,5-dimethylthiazol-2-yl)-2,5-diphenyltetrazolium bromide) for 2 h, then add 50 μL of 20% SDS/0.01 M HCl incubated overnight, and detected the absorbance at a wavelength of 570 nm.
(§5) Inhibition rate was calculated using the equation: […]
(§6) The IC50 values were calculated by using GraphPad Prism 9 software fitting to a dose-response inhibition equation.

[4] = tested on: MDA-MB-231 cells; assay: MTT assay, MDA-MB-231; format: cell-based, human; conditions: breast cancer cell line, read-out: Cell lines IC50 [μM] MDA-MB-231
Procedure: as §3, §4, §5, §6

[5] = tested on: JAR cells; assay: MTT assay, JAR; format: cell-based, human; conditions: 72 h, choriocarcinoma cell line, read-out: Cell lines IC50 [μM] JAR
Procedure: as §3, §4, §5, §6

[6] = tested on: Ramos cells; assay: MTT assay, Ramos; format: cell-based, human; conditions: 72 h, Burkitt lymphoma cell line, read-out: Cell lines IC50 [μM] Ramos
Procedure: as §3, §4, §5, §6

[7] = tested on: Molt-4 cells; assay: MTT assay, Molt-4; format: cell-based, human; conditions: acute leukemia cell line, read-out: Cell lines IC50 [μM] Molt-4
Procedure: as §3, §4, §5, §6

[8] = tested on: Jurkat cells; assay: MTT assay, Jurkat; format: cell-based, human; conditions: 72 h, acute leukemia cell line, read-out: Cell lines IC50 [μM] Jurkat
Procedure: as §3, §4, §5, §6

| Molecule | IC50 ([3]; 72 h) [µM] | IC50 ([4]; 72 h) [µM] | IC50 ([6]; Homo sapiens, Ramos) [µM] | IC50 ([7]; Homo sapiens, MOLT-4, 72 h) [µM] | IC50 ([8]; Homo sapiens, Jurkat) [µM] | IC50 ([3]; Homo sapiens, MCF7, 72 h) [µM] | IC50 ([4]; Homo sapiens, MDA-MB-231, 72 h) [µM] | IC50 [6] [µM] | IC50 ([7]; 72 h) [µM] | IC50 [8] [µM] | ΔTm (pre-miR-17 hp) @60 uM [° C.] [1] [°C] | ΔTm (pre-miR-21 hp) @60 uM [° C.] [2] [°C] | IC50 [5] [µM] | IC50 ([5]; Homo sapiens) [µM] |
| --- | --- | --- | --- | --- | --- | --- | --- | --- | --- | --- | --- | --- | --- | --- |
| N#CC1C(c2ccc(-c3ccc(C(F)(F)F)cc3)cc2)C(CO)N1C(=O)c1ccc(NC(=O)c2sc3ncccc3c2N)cc1 (stereo not shown) [Compound A1, 1-(1-amino-(3-aminothieno[2,3-b]pyridine-2-carbonyl)phenyl-4-carbonyl)-4-(hydroxymethyl)-3-(4′-(trifluoromethyl)-[1,1′-biphenyl]-4-yl) azetidine-2-carbonitrile] |  |  | 4.81 | 2.91 | 2.81 | 5.95 | 10 |  |  |  | −3 | −2 |  | 2.95 |
| N#CC1C(c2ccc(-c3ccc(C(F)(F)F)cc3)cc2)C(CO)N1C(=O)c1sc2ncccc2c1N (stereo not shown) [Compound A2, 1-(3-aminothieno[2,3-b]pyridine-2-carbonyl)-4-(hydroxymethyl)-3-(4′-(trifluoromethyl)-[1,1 biphenyl]-4-yl) azetidine-2-carbonitrile] |  |  |  |  |  |  |  | 3.8 | 4.61 | 3.35 | −2 | −2.5 ± 0.5 | 3.41 |  |
| CCCN1C(CO)C(c2ccc(-c3ccc(C(F)(F)F)cc3)cc2)C1CNC(=O)c1sc2ncccc2c1N (stereo not shown) [Compound A4, 3-amino-N-((4-(hydroxymethyl)-1-propyl-3-(4′-(trifluoromethyl)-[1,1′-biphenyl]-4-yl)azetidin-2-yl)methyl) thieno[2,3-b]pyridine-2-carboxamide] | 5.79 | 7.02 |  |  |  |  |  |  |  |  | −1 | −2 | 2.3 |  |
| CCCN1C(CO)C(c2ccc(-c3ccc(C(F)(F)F)cc3)cc2)C1CNC(=O)c1sc2ncccc2c1N (stereo not shown) [Compound A5, 3-amino-N-((4-(hydroxymethyl)-1-propyl-3-(4′-(trifluoromethyl)-[1,1′-biphenyl]-4-yl)azetidin-2-yl)methyl) thieno[2,3-b]pyridine-2-carboxamide] |  |  | 5.05 | 5.49 | 5.13 |  |  |  |  |  |  |  |  |  |
| CCCN1C(CO)C(c2ccc(-c3ccc4nc[nH]c4c3)cc2)C1CNC(=O)c1sc2ncccc2c1N (stereo not shown) [Compound A8, N-((3-(4-(1H-benzo[d]imidazol-6-yl)phenyl)-4-(hydroxymethyl)-1-propylazetidin-2-yl)methyl)-3-aminothieno[2,3-b]pyridine-2-carboxamide] |  |  | 26.8 | 8.5 | 19.1 |  |  |  |  |  |  |  |  |  |
| CCCN1C(CO)C(c2ccc(-c3ccc4nc[nH]c4c3)cc2)C1CNC(=O)c1sc2ncccc2c1N (stereo not shown) [Compound A9, N-((3-(4-(1H-benzo[d]imidazol-6-yl)phenyl)-4-(hydroxymethyl)-1-propylazetidin-2-yl)methyl)-3-aminothieno[2,3-b]pyridine-2-carboxamide] |  |  |  |  |  | > 20 | > 20 | > 20 | 11.4 | > 20 | 0 | 0 |  | 9.56 |
| CNc1nc(N2CC(c3ccc(-c4c(C)noc4C)cc3)C2C#N)nc2ccccc12 (stereo not shown) [Compound B1, 3-(4-(3,5-dimethylisoxazol-4-yl)phenyl)-1-(4-(methylamino)quinazolin-2-yl) azetidine-2-carbonitrile] |  |  |  | 7.01 | 6.31 | 9.92 | 14.4 | 7.35 |  |  | 0 | 0 |  | 1.74 |
| CNc1nc(N2CC(C3(C(F)(F)F)C=CC(c4ccccc4)=CC3)C2C#N)nc2ccccc12 (stereo not shown) [Compound B6, 1-(4-(methylamino)quinazolin-2-yl)-3-(4 (trifluoromethyl)-[1,1′-biphenyl]-4-yl) azetidine-2-carbonitrile] |  |  | 1.82 | 4.79 | 5.47 | 5.23 | 7.07 |  |  |  | 1.25 |  |  | 1.29 |
| N#CC1C(c2ccc(-c3ccc(C(F)(F)F)cc3)cc2)CN1C(=O)c1sc2ncccc2c1N (stereo not shown) [Compound B7, 1-(3-aminothieno[2,3-b]pyridine-2-carbonyl)-3-(4′-(trifluoromethyl)-[1,1′-biphenyl]-4-yl) azetidine-2-carbonitrile] |  |  | 6.61 | 13.9 | 7.42 |  |  |  |  |  |  |  | 1.16 | 1.5 |
| CNc1nc(N2CC(c3ccc(-c4ccc5nc[nH]c5c4)cc3)C2C#N)nc2ccccc12 (stereo not shown) [Compound B10, 3-(4-(1H-benzo[d]imidazol-6-yl)phenyl)-1-(4-(methylamino)quinazolin-2-yl) azetidine-2-carbonitrile] | 8.24 | 10.8 | 8.27 |  |  |  |  |  | 12.1 | 11.2 | 0 | 0 | 4.78 |  |

The next lines start with results.

| IC50 ([3]; 72 h) [µM] | IC50 ([4]; 72 h) [µM] | IC50 ([6]; Homo sapiens, Ramos) [µM] | IC50 ([7]; Homo sapiens, MOLT-4, 72 h) [µM] | IC50 ([8]; Homo sapiens, Jurkat) [µM] | IC50 ([3]; Homo sapiens, MCF7, 72 h) [µM] | IC50 ([4]; Homo sapiens, MDA-MB-231, 72 h) [µM] | IC50 [6] [µM] | IC50 ([7]; 72 h) [µM] | IC50 [8] [µM] | Molecule | ΔTm (pre-miR-17 hp) @60 uM [° C.] [1] [°C] | ΔTm (pre-miR-21 hp) @60 uM [° C.] [2] [°C] | IC50 [5] [µM] | IC50 ([5]; Homo sapiens) [µM] |
| --- | --- | --- | --- | --- | --- | --- | --- | --- | --- | --- | --- | --- | --- | --- |
| > 20 | > 20 |  |  |  |  |  |  |  |  | 3-(4-(1H-benzo[d]imidazol-6-yl)phenyl)-1-(3-aminothieno[2,3-b]pyridine-2-carbonyl)-4-(hydroxymethyl)azetidine-2-carbonitrile [Compound A7] | 0 | 0 | 5.74 |  |
|  |  | 7.03 |  | 3.73 | 6.22 | 18.6 |  | 10.8 |  | N#CC1C(c2ccc(-c3ccc(C(F)(F)F)cc3)cc2)C(CO)N1C(=O)c1sc2ncccc2c1N (stereo not shown) [Compound A3, 1-(3-aminothieno[2,3-b]pyridine-2-carbonyl)-4-(hydroxymethyl)-3-(4′-(trifluoromethyl)-[1,1′-biphenyl]-4-yl) azetidine-2-carbonitrile] | −6.5 ± 0.5 | −6 | 9.75 |  |
| 5.72 | 12.5 |  |  |  |  |  |  |  |  | Cc1noc(C)c1-c1ccc(C2CN(C(=O)c3sc4ncccc4c3N)C2C#N)cc1 (stereo not shown) [Compound B3, 1-(3-aminothieno[2,3-b]pyridine-2-carbonyl)-3-(4-(3,5-dimethylisoxazol-4-yl)phenyl) azetidine-2-carbonitrile] |  |  | 1.28 |  |
| 12.5 |  | 12.4 | 10.6 | 7.3 |  | > 20 |  |  |  | Cc1noc(C)c1-c1ccc(C2CN(C(=O)c3sc4ncccc4c3N)C2C#N)cc1 (stereo not shown) [Compound B4, 1-(3-aminothieno[2,3-b]pyridine-2-carbonyl)-3-(4-(3,5-dimethylisoxazol-4-yl)phenyl) azetidine-2-carbonitrile] | 0 | 0 | 5.92 |  |
